Test results published in PubChem BioAssay AID1053148 (Broad Institute, 2014).

Tested on: HepG2 ERK1/2 phosphorylation, Western blot imaging
Assay: phospho-ERK1/2 induction in hepatoma cells – cell-based, HepG2, Western blot imaging, cherry-pick, mechanism study for Trib1 inducer project, late-stage follow-up (AID 1053148)
Settings: active compounds read high

## CN1C(=O)c2cc(NC(=O)c3ccc(C(F)(F)F)cc3)ccc2OC[C@@H]2O[C@H](CC(=O)NC3Cc4ccccc4C3)CC[C@@H]21
  fold induction x10: 2
